Source: patent US4529733A, “Antihypertensive 3-furoyl-1,4-dihydropyridines” (Merrell Dow Pharmaceuticals Inc., priority 1983, dated 1985)

Tests used:
[1] = target: T1, K^+ -depolarized taenia preparations from the guinea pig caecum (Cavia porcellus, UniProt O35505); test: Calcium antagonism in K+-depolarized taenia preparations (displacement of Ca++ concentration-response curves); type: cell-based; details: for Kb: calculated, against Ca++, read-out: pA2 (converted)
T1 construct: taenia preparations from the guinea pig caecum; from tissue; host or cells: guinea pig caecum, taenia (smooth muscle)
T1 sequence (O35505 whole entry): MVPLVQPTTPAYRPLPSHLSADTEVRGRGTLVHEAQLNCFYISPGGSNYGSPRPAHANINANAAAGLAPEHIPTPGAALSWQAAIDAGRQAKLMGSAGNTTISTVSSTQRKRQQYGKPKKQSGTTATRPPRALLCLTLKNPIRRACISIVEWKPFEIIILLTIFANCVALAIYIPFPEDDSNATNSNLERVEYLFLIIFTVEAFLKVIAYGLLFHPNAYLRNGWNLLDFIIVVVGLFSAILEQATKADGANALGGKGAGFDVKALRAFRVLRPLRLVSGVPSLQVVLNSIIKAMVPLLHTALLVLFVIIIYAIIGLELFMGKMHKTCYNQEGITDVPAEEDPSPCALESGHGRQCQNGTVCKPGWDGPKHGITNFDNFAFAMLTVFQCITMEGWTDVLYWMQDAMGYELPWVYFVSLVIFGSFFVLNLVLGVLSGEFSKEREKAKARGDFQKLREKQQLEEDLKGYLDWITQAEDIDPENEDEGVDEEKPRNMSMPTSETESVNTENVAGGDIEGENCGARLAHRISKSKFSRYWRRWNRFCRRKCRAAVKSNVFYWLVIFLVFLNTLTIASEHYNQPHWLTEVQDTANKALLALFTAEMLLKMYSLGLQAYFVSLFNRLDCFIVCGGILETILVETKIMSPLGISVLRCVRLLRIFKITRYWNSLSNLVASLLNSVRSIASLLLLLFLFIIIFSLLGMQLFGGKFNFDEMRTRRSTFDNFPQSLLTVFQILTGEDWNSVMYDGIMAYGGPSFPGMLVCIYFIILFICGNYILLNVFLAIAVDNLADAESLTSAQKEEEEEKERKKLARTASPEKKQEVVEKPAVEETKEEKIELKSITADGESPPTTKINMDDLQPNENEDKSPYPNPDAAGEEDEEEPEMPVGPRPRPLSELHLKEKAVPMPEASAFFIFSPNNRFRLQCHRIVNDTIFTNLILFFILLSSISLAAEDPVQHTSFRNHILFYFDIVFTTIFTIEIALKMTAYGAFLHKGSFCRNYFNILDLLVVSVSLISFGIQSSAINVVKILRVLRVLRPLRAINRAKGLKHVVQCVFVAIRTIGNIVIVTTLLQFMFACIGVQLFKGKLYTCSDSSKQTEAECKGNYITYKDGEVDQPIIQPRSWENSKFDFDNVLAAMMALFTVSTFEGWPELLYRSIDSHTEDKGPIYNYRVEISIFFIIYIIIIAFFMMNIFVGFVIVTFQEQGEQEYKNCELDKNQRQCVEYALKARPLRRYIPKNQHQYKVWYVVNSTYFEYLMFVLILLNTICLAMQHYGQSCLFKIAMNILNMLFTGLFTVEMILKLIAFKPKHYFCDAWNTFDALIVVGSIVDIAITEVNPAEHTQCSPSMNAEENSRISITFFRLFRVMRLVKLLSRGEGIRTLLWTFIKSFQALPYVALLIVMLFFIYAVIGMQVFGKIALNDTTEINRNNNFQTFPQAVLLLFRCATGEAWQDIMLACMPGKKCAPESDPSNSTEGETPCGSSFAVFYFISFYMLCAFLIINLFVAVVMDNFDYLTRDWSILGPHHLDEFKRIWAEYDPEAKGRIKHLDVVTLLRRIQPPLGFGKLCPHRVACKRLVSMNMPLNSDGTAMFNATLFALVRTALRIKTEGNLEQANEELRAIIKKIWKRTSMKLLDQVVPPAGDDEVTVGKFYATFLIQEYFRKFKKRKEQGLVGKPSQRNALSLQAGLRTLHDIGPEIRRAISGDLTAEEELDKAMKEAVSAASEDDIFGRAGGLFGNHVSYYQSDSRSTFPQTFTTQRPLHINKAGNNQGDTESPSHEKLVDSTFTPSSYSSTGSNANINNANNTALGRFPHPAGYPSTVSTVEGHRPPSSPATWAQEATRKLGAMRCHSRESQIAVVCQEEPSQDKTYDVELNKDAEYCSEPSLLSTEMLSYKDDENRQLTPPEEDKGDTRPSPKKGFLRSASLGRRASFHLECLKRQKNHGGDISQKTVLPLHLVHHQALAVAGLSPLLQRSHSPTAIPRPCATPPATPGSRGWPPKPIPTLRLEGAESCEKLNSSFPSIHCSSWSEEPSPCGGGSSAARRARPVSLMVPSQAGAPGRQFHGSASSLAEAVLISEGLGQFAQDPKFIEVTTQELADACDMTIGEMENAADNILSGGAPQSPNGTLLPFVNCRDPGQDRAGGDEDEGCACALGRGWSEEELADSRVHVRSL
Description: Pharmacol., 38, 234 (1982). […] Pharmacol., 318, 234 (1982)].

pithed rats = test: Anti-hypertensive activity in pithed rats (blood pressure elevated by angiotensin II infusion); type: in vivo, rat; details: for bradycardia / diastolic blood pressure, elevated by an infusion of angiotensin II: i.v., result in words
[2] = system: pentobarbitone-anesthetized rats; test: Anti-hypertensive effect in pentobarbitone-anesthetized rats; type: in vivo, rat; details: for Change in diastolic blood pressure / Change in heart rate: pentobarbitone-anesthetized rats
Procedure: In this test, rats, anesthetized with a 45 to 60 mg/kg dose (i.p.) of sodium pentabarbitone, receive the test compound by injection by means of an indwelling cannula in the femoral vein. Diastolic blood pressure is measured by an indwelling catheter in the femoral artery. Heart rate is also measured.

[3] = system: conscious spontaneously hypertensive rats (stroke prone strain); test: Anti-hypertensive effect in conscious spontaneously hypertensive rats (stroke prone strain); type: in vivo, rat
Procedure: In this test, the test compound is injected in an indwelling cannula in the femoral vein and blood pressure is measured by an indwelling catheter in the femoral artery. Heart rate is also measured.

[4] = system: K^+ -depolarized taenia preparations from guinea pig caecum; test: Inhibition of 45Ca++ uptake in K+-depolarized taenia preparations; type: cell-based; details: 0.1 and 1 μM; 20 minutes incubation
Procedure: In this procedure, strips of taenia are incubated in Ca^++ -free buffer (composition, mM: NaCl, 97; KCl, 40; glucose, 5.5, HEPES buffer, 10; pH 7.0) at 35° C. and gassed with oxygen. The preparations thus prepared are then incubated with the test compound for 20 minutes after which ^45 Ca^++ /Ca^++ is added (1 mM for 10 minutes). Extracellular Ca^++ is displaced with lanthanum (50 mM) at 0°-4° C.

## CCOC(=O)C1=C(C)NC(C)=C(C(=O)c2ccco2)C1c1ccccc1[N+](=O)[O-] (stereo not drawn) [Compound B, 3-(2-furoyl)-5-ethoxycarbonyl-2,6-dimethyl-4-(2-nitrophenyl)-1,4-dihydropyridine]
[1]
  displacement of concentration-response curves to Ca++: caused a concentration-dependent displacement to the right
  Kb: 4.57 nM
Pithed rats; 10 nmol/kg i.v.
  Change in diastolic blood pressure: 80.6 ± 2.8 % control
  Change in heart rate: 94.1 ± 0.5 % control
Pithed rats; 30 nmol/kg i.v.
  Change in diastolic blood pressure: 67.9 ± 3.0 % control
  Change in heart rate: 90.4 ± 1.3 % control
Pithed rats; 100 nmol/kg i.v.
  Change in diastolic blood pressure: 47.7 ± 2.4 % control
  Change in heart rate: 85.7 ± 1.5 % control
Pithed rats; 300 nmol/kg i.v.
  Change in diastolic blood pressure: 45.6 ± 3.9 % control
  Change in heart rate: 84.1 ± 3.4 % control
Pithed rats; 1000 nmol/kg i.v.
  Change in diastolic blood pressure: 39.1 ± 2.1 % control
  Change in heart rate: 76.6 ± 3.4 % control
Pithed rats; 3000 nmol/kg i.v.
  Change in diastolic blood pressure: 37.1 ± 0.8 % control
  Change in heart rate: 72.2 ± 3.4 % control
Pithed rats
  bradycardia: dose-dependent bradycardia
  diastolic blood pressure, elevated by an infusion of angiotensin II: significantly reduced

## COC(=O)C1=C(C)NC(C)=C(C(=O)c2ccco2)C1c1ccccc1[N+](=O)[O-] (stereo not drawn) [Compound A, 3-(2-furoyl)-5-methoxycarbonyl-2,6-dimethyl-4-(2-nitrophenyl)-1,4-dihydropyridine]
[2]; anesthetized rats, i.v., result in words
  blood pressure in anesthetized rats: reduced blood pressure in anesthetized rats in a dose-dependent manner
[2]; 10 nmol/kg i.v.
  Change in diastolic blood pressure: 86.0 ± 3.3 % control
  Change in heart rate: 103.5 ± 0.9 % control
[2]; 30 nmol/kg i.v.
  Change in diastolic blood pressure: 80.2 ± 3.2 % control
  Change in heart rate: 106.2 ± 2.0 % control
[2]; 100 nmol/kg i.v.
  Change in diastolic blood pressure: 55.0 ± 2.8 % control
  Change in heart rate: 107.1 ± 3.6 % control
[2]; 300 nmol/kg i.v.
  Change in diastolic blood pressure: 54.6 ± 1.9 % control
  Change in heart rate: 106.7 ± 3.1 % control
[2]; 1000 nmol/kg i.v.
  Change in diastolic blood pressure: 46.7 ± 1.6 % control
  Change in heart rate: 104.0 ± 1.8 % control
[2]; 3000 nmol/kg i.v.
  Change in diastolic blood pressure: 46.6 ± 1.6 % control
  Change in heart rate: 102.2 ± 2.2 % control
[2]; 10000 nmol/kg i.v.
  Change in diastolic blood pressure: 32.4 ± 2.0 % control
  Change in heart rate: 99.9 ± 3.4 % control
[3]; 100 nmol/kg i.v.
  Fall in mean blood pressure: 4.5 ± 1.5 mm Hg
  Increase in heart rate: 20.0 ± 3.2 beats/min
[3]; 300 nmol/kg i.v.
  Fall in mean blood pressure: 20.5 ± 1.5 mm Hg
  Increase in heart rate: 70.0 ± 4.2 beats/min
[3]; 1000 nmol/kg i.v.
  Fall in mean blood pressure: 42.5 ± 1.8 mm Hg
  Increase in heart rate: 118.0 ± 16.3 beats/min
[3]; 3000 nmol/kg i.v.
  Fall in mean blood pressure: 56.6 ± 1.4 mm Hg
  Increase in heart rate: 136.3 ± 11.1 beats/min
[3]; i.v., result in words
  blood pressure: significantly reduced blood pressure in a dose-dependent manner
  reflex tachycardia: produced reflex tachycardia
[1]
  displacement of concentration-response curves to Ca++: caused a concentration-dependent displacement to the right
  Kb: 1.78 nM
[4]
  uptake of 45Ca++ into the tissue: reduced uptake
Pithed rats; 3 nmol/kg i.v.
  Change in diastolic blood pressure: 82.2 ± 5.3 % control
  Change in heart rate: 98.1 ± 0.9 % control
Pithed rats; 10 nmol/kg i.v.
  Change in diastolic blood pressure: 72.3 ± 4.9 % control
  Change in heart rate: 93.7 ± 1.7 % control
Pithed rats; 30 nmol/kg i.v.
  Change in diastolic blood pressure: 62.4 ± 3.5 % control
  Change in heart rate: 90.9 ± 2.5 % control
Pithed rats; 100 nmol/kg i.v.
  Change in diastolic blood pressure: 52.0 ± 3.8 % control
  Change in heart rate: 81.1 ± 3.3 % control
Pithed rats; 300 nmol/kg i.v.
  Change in diastolic blood pressure: 45.0 ± 1.6 % control
  Change in heart rate: 74.2 ± 3.4 % control
Pithed rats; 1000 nmol/kg i.v.
  Change in diastolic blood pressure: 36.4 ± 1.8 % control
  Change in heart rate: 67.9 ± 3.4 % control
Pithed rats; 3000 nmol/kg i.v.
  Change in diastolic blood pressure: 32.9 ± 1.8 % control
  Change in heart rate: 64.3 ± 3.4 % control
Pithed rats
  bradycardia: dose-dependent bradycardia
  diastolic blood pressure, elevated by an infusion of angiotensin II: significantly reduced
